Laboratory results: patent US8741843B2, “Compositions and methods for inducing angiogenesis” (priority 2006, dated 2014)
“Also recorded” adds a separate entry of the source. Ends that are not written are not given here.

Columns and labels:
[1] = system: endothelial cells (HUVEC); experiment: Migration of endothelial cells under hypoxia (Chemicon QCM 96-well Migration Assay); type: cell-based, human; conditions: 5 hours hypoxia, 10 ng/ml
Protocol: FIG. 6 is a graph depicting migration of endothelial cells under hypoxia conditions. Endothelial cells (25,000) were incubated in endothelial cells growth medium free supplements in the migration chamber. ADOPep1 (SEQ ID NO:2), 2 (SEQ ID NO:3) and 3 (SEQ ID NO:4) were added to the feeder tray of the migratory kit at 1, 10 and 100 ng/ml for 5 hours hypoxia. Results were determined by a fluorescence ELISA reader and expressed as increase in percentage migration in Relative fluorescence Units.
FIGS. 26a-b are graphs depicting induction of endothelial cell migration under hypoxia by the ADOPEP motifs. Endothelial cells were incubated for 5 hours under hypoxia conditions in the presence of increasing concentrations of ADOPep1 (red line), peptide motif A (dark blue line), peptide motif B (green line) or peptide motif C (light blue line) and the migration of endothelial cells was detected. FIG. 26a—experiment 1; FIG. 26b—experiment 2.
Endothelial cell migration was evaluated by the Chemicon QCM 96-well Migration Assay (Chemicon International, Calif., USA) according to manufacturer's instructions. This kit utilizes a membrane with an 8 μm pore size. Migratory cells on the bottom of the insert membrane are dissociated from the membrane when incubated with cell detachment buffer provided by the kit. […] For the migration assay, HUVEC from passage 3 were incubated in endothelial cell (EC) growth medium free of supplements. After trypsinization, 25,000 EC were incubated in the migration chamber. ADOPeps were added at concentrations of 1, 10 and 100 ng/ml in the feeder tray for chemoattractant migration assay. Time of incubation was 5 hours for endothelial cells under hypoxic conditions. Results were determined in a Fluorescent ELISA reader at 480/520 nm.

[2] = system: endothelial cells; experiment: Hypoxia-induced apoptosis of endothelial cells (Annexin V FITC/PI FACS); type: cell-based, human; conditions: 24 hours hypoxia; for effect on hypoxia-induced apoptosis of endothelial cells: peptides 10 ng/ml
Protocol: FIG. 17 is a histogram depicting the effect of ADOPep1 on hypoxia-induced apoptosis of endothelial cells. Endothelial cells were exposed for 24 hours hypoxia in the presence of endothelial cell growth medium supplemented with 5% fetal calf serum (FCS), followed by incubation under hypoxia conditions with ADOPep1 (10 ng/ml) or anti-GRP78 antibody (100 ng/ml). Cells (100,000/tube) were incubated with Annexin-V FITC/PI for endothelial cell apoptosis determination. […] Similarly, anti-GRP78 antibody induced a reduction in apoptosis up to 32%.
FIGS. 24a-d are FACS analyses depicting hypoxia induced apoptosis. Endothelial cells were incubated for 24 hours under hypoxia conditions in the absence (FIG. 24a) or presence of 10 ng/ml of ADOPepe1 (FIG. 24b), peptide of Motif A (FIG. 24c) or peptide of motif C (FIG. 24d) and the level of apoptosis was determined using FACS analysis and the PI (shown on the Y axis)/Annexin V (shown on the X axis) markers.
FIG. 25 is a bar graph depicting the inhibition of hypoxia induced apoptosis by ADOPep 1, Motif A and Motif B. Endothelial cells were incubated for 24 hours under hypoxia conditions in the absence or presence of 10 ng/ml of ADOPepe1, Motif A, Motif B or motif C and the level of apoptosis was determined using FACS analysis and quantified as the percent of Annexin V and PI positive cells. The results represent average±standard deviation of 4 independent experiments.
FIGS. 33a-f are representative FACS analyses depicting a specific inhibition of hypoxia-induced apoptosis of endothelial cells by ADOPep1. Endothelial cells in Petri dishes were incubated for 24 hours with 5% FCS in supplement-free endothelial cell growth medium under normoxia (FIGS. 33a and d), exposed to 24 hours hypoxia (Figures c and f) or incubated under normoxia with 100 micromolar per 100,000 cells CoCl2 (FIGS. 33b and e), in the absence (FIGS. 33a-c) or presence (FIGS. 33d-f) of 10 ng/ml Adopep1 peptide (for 24 hours). Cells were trypsinized and immediately re-suspended in PBS with 5% FCS and 0.1% Na-azide. Samples containing 100,000 cells were tested for apoptosis using the Annexin-FITC (X axis) and propidium iodide (Y axis) kit (Bender Medsystems, Vienna, Austria), according to manufacturer's instructions. Results were analyzed by FACScan (Beckton Dickinson).
EC were incubated for 24 hours with 5% FCS in EC growth media in Petri dishes plates followed by 24 hours incubation under hypoxia conditions with ADOPep1 (10 ng/ml), anti GRP78 antibody (Santa Cruz Biotechnology, Calif., USA) (1 microgram/ml) or recombinant VEGF (10 ng/ml). The Annexin V FITC/PI detects the phosphatidylserin on the apoptotic cells using flow cytometry. Human Annexin V-FITC kit (Bender Medsystems, Vienna, Austria) was used for the measurement of EC apoptosis percentage following manufacturer's instructions. Samples were analyzed using a fluorescence activated cell sorter (FACScan Beckton Dickinson, Calif., USA).

[3] = system: endothelial cells; experiment: Inhibition of binding of biotinylated ADOPep1 to endothelial cells by motif peptides; parameters: species or system human; conditions: normoxia, peptides 0.01, 0.1 or 1 ng/ml, ADOPep1^Biot 2 μg/ml
Protocol: FIG. 23 is a graph depicting the inhibition of binding of ADOPep1^Biot (2 μg/ml) to endothelial cells by specific peptides corresponding to conserved motifs from the ADOPeps. Endothelial cells were incubated for 2 hours under normoxia conditions in the presence of increasing concentrations (0.01, 0.1 or 1 ng/ml) of peptides having the amino acid sequences corresponding to Motif A (HWRRP; SEQ ID NO:7), Motif B (HWRRA; SEQ ID NO:8), Motif C (AHLLP; SEQ ID NO:6) or non-biotinylated ADOPep1 (SEQ ID NO:2) and then were incubated for 1 hour with biotinylated ADOPep1 (2 μg/ml) and the binding of biotinylated ADOPep1 to endothelial cells was determined using HRP-streptavidin.

[4] = target: T1, GRP78 on endothelial cells (Homo sapiens, UniProt P11021); experiment: FACS competition of peptides with GRP78 polyclonal antibody on endothelial cells under hypoxia; type: binding; conditions: hypoxic conditions; listed as motif C
T1 construct: endogenous in cells; host or cells: HUVEC / endothelial cells from umbilical cords, under normoxia or hypoxia
Protocol: Endothelial cells were cultured for 24 hours under hypoxic conditions in endothelial cell growth medium. Cells were removed by trypsin and incubated for 1 hour on ice with increasing concentrations of AdoPep1, Motif A and Motif C peptides. GRP78 polyclonal antibody (2 μg/100,000) was added to the cells for 2 hours on ice. Anti-goat FITC (Jackson ImmunoResearch) was added for 30 minutes on ice. IgG1-FITC was used as the isotype control. The samples were analyzed with a FACScan (Beckton Dickinson). […] FIG. 28d depicts the average percent binding of GRP78 to endothelial cells as a function of peptide amount as determined by 2 independent experiments.

[5] = system: endothelial cells (HUVEC); experiment: Binding of biotinylated ADOPep to endothelial cells by FACS; parameters: species or system human; conditions: 5 micrograms per 100,000 cells
Protocol: FIG. 3 is a FACS analysis depicting the binding (in percentages) of biotinylated ADOPep1 (ADOPep1^Biot), an ADAM15 derived peptide (SEQ ID NO:2), to endothelial cells (EC) under normoxia. Biotinylated ADOPep1 at 0.05, 0.5 and 5 microgram/ml (μg/ml) were added to endothelial cells.
FIG. 4 is a FACS analysis depicting the binding (in total counts) of Biotinylated ADOPep1 to endothelial cells under normoxia and hypoxia conditions. […] X axis—Intensity of binding.
Human umbilical endothelial cells (HUVEC) were harvested by trypsin and 100,000 cells per sample were suspended in PBS+5% FCS+0.1% Na azide. Endothelial cells were either exposed for 5 hours to hypoxia or remained under normoxia conditions. Cells were stained for 2 hours on ice in dark with 0.05, 0.5, 5 μg/100,000 cells biotinylated ADOPeps. The cells were then washed twice with PBS, following which the cells were stained for 30 minutes with FITC-labeled Streptavidin (Jackson ImmunoResearch Laboratories, PA, USA). After washing, samples were analyzed using a fluorescence activated cell sorter (FACScan Beckton Dickinson, Calif., USA).

[6] = target: GRP78 (Homo sapiens, UniProt P11021); experiment: Immune precipitation of endothelial cell lysate with biotinylated ADOPep1, PAGE, Western blot, mass spectrometry; type: binding; parameters: immune precipitation of endothelial cells lysate with biotinylated ADOPep1 under normoxia and hypoxia conditions; endogenous in cells; host or cells: HUVEC (lysate); conditions: normoxia and hypoxia
Protocol: HUVEC were seeded in 90 mm Petri dishes plates for 24 hours with complete Endothelial Cell Growth Medium (PromoCell. Heildelberg, Germany). Cells were washed twice with PBS and buffer lysate (50 mM Tris Cl (pH 8, 150 mM Na Cl, 0.02% Na azide, 0.1% SDS, 100 μg/ml PMSF, 1 μg/ml protease inhibitors, 1% NP-40) was added for 20 minutes on ice. After incubation, cells were scraped with a rubber policeman and transferred to a chilled microfuge tube. After centrifugation of lysate at 12,000 g for 2 minutes at 4° C., supernatant was transferred to a fresh microfuge tube and stored at −70° C.
Aliquots samples of lysates (500 μl) were incubated with 10 μg of biotinylated ADOPep1 for one hour at 4° C. by gently mixing. Streptavidin Sepharose beads (Amersham Biosciences, Uppsla, Sweeden) (50 μl) were added to the sample for a second incubation one hour at 4° C. by gently mixing. After then, sample was centrifuge for 20 seconds at 12,000 g and the pellet was saved and further washed 3 times. Finally the pellet was suspended in 100 μl of sample buffer for Western blot analysis. For ELISA, protein was eluted by 5 minutes incubation of the sample at room temperature in 1 ml of Tris-Glycin 0.2M (pH 2.2), followed by titration with 1M Tris (pH 9.1). […]

T1 sequence (P11021 19-654): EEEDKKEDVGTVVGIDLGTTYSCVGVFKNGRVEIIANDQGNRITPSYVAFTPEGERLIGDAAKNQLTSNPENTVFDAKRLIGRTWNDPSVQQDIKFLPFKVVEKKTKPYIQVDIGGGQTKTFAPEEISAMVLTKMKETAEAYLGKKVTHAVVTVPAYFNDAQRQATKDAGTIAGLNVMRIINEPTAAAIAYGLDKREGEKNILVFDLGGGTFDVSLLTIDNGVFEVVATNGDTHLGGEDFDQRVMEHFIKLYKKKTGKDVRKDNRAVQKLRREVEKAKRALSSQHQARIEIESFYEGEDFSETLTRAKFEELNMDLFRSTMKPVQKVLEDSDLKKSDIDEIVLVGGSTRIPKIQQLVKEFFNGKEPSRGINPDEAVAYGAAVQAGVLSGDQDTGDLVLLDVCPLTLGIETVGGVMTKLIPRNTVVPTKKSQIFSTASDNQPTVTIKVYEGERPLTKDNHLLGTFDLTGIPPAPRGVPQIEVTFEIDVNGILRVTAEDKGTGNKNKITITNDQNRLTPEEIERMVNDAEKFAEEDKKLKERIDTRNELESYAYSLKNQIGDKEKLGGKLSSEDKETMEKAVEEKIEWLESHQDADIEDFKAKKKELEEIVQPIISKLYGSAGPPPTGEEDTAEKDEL
GRP78, sequence (P11021 19-654): as above

inhibition of anti GRP78 binding to endothelial cells (in words) [4] | protein (receptor) bound by the peptide in endothelial cell lysate [6] | Substance | migration of endothelial cells [1] | effect on hypoxia-induced apoptosis of endothelial cells [2] | effect on hypoxia-induced apoptosis of endothelial cells ([2]; listed as motif C) | percent apoptosis (PI/Annexin V) ([2]; FIGS. 24a-d, 10 ng/ml, hypoxia alone 79.3%) [%] | inhibition of the binding of ADOPep1^Biot to endothelial cells [3] | binding to endothelial cells under hypoxia versus normoxia [5]
did not inhibit anti GRP78 binding |  | AHLLP [Motif C, 5 amino acid motif peptide without HWRR] | no significant effect on endothelial cell migration | no effect on apoptosis | no effect on hypoxia induced apoptosis | 81.1 | moderate inhibition of binding | 
 |  | HWRRA [Motif B, 5 amino acid motif peptide] | induced endothelial cell migration | capable of inhibiting the hypoxia induced apoptosis; also recorded: significant inhibition of hypoxia induced apoptosis |  |  | significant inhibition | 
 | GRP78 protein | biotinylated ADOPep1: biotinylated ADOPep1 (SEQ ID NO:2) (HWRRAHLLPRLP; also: biotinylated) |  |  |  |  |  | increased under hypoxia
